From patent publication US7888355B2, “Compositions and methods for inhibiting growth and metastasis of melanoma” (Burnham Institute for Medical Research, priority 2007, dated 2011)

What was measured:
MeWO cells = test: MeWO melanoma cell viability; format: cell-based, human
Description: (§1) Cell lines. Mouse melanoma (SW1) and human melanoma (LU1205) cells were maintained in DMEM supplemented with 10% FBS, L-glutamine and antibiotics. The human melanoma cell lines MEWO and WM115 were maintained in RPMI supplemented with 10% FBS and antibiotics. Primary mouse melanocytes were cultured in F-12 media supplemented with 10% FBS, antibiotics, IBMX (isobuthyl-methylxantine), bovine pituitary extract, and TPA.
(§2) Mitochondrial activity and apoptosis. Cells were exposed to the chemicals for 12-48 hours as indicated in Results. To measure changes in mitochondrial activity reflective of general cell viability, the ATPLITE ATP detection assay was used according to the manufacturer's recommendations (Perkin Elmer). Apoptosis analysis was performed by flow cytometry of PI-stained cells. The percentage of cells to the left of the diploid G0/1 peak, characteristic of hypodiploid cells that have partially lost DNA, was calculated as percentage of apoptotic cells (Bhoumik et al., PNAS 101:4222-7, 2004). Analysis of changes in Caspase 8 expression pattern was performed using immunoblot analysis.
The effects of CSL and AIGA on the human melanoma cell lines WM115 and MEWO were assessed. […]

[1] = test system: JNK phosphorylation on residues 183/185; test: Western blot for JNK phosphorylation in SW1 cells; format: cell-based, mouse; settings: 0.5, 1.0, 2.0 μM
Description: Immunoblot analysis. Proteins prepared from cells at the indicated time points using RIPA buffer and 75 μg were separated on SDS-PAGE followed by immunoblot analysis using the antibodies indicated. Antibodies used were as follows: anti-JNK (Santa Cruz), phospho-JNK (Promega Corp.; Madison, Wis.), phospho c-Jun (Cell Signaling Technology, Inc.; Danvers, Mass.), c-Jun (Santa Cruz Biotechnology, Inc.; Santa Cruz, Calif.) and Caspase 8 (BD Biosciences; San Jose, Calif.).
Thus, the two compounds were evaluated to determine if they require JNK activity for their effects on melanoma cells. To this end, the ability of AIGA or CSL to affect the viability of melanoma cells in the presence of a JNK inhibitor was tested. SW1 cells, with or without a 30-minute pretreatment with the JNK inhibitor SP600125 (10 μM), were contacted with AIGA or CSL at the indicated concentrations for 20 h. ATP levels were used to measure the cell viability using the ATPLITE kit. […] To assess whether these compounds affect JNK activity, changes in JNK phosphorylation on residues 183/185, which are required for its kinase activity, were monitored. […] Total level of JNK was analyzed in parallel. […]

WM115 cells = test: WM115 melanoma cell viability; format: cell-based, human; settings: WM115 cells
Description: as §1, §2
The effects of CSL and AIGA on the human melanoma cell lines WM115 and MEWO were assessed. AIGA reduced the viability of the human melanoma cultures when added at a concentration of 0.5-2 μM (FIG. 5a and FIG. 5c) whereas CSL reduced their viability at a concentration of 0.1 μM-2 μM in WM115 cells (FIG. 5b) and 0.05 μM-2 μM in MeWO cells (FIG. 5d).

SW1 mouse melanoma = test: SW1 metastatic lesions in syngeneic C3H mice; format: in vivo; settings: SW1 cells s.c. in C3H mice
Description: (§3) Tumor growth and metastasis in vivo. GFP-expressing SW1 cells were trypsinized, resuspended in PBS, and injected subcutaneously (1×10^6) into the lower flank of 6 to 7-week-old mice. When tumors reached a size of about 50 mm^3, the indicated compounds (100 μL of the vehicle—10% DMSO, 70% Cremophor/ethanol (3:1), and 20% PBS and 1.0 mg/kg of celastrol or 0.5 mg/kg of the derivatives CA16, CA19) were injected i.p. every alternate day. Body weight and tumor growth were monitored every 2 days. GFP-expressing SW1 tumors were monitored in vivo on shaved mice with a light box illuminated by blue light fiber optics (Lightools Research; Encinitas, Calif.), and imaging was carried out with a digital camera (Nikon D100). Tumors were measured for up to 3 weeks. For metastases studies, LU1205 cells (1×10^6) were injected i.v. into the lateral tail vein of nude mice. At the end of the experiment, the lungs and tumors were excised and weighed. To detect metastatic lesions, lungs were fixed in formalin, embedded in paraffin and subjected to hematoxylin and eosin staining.
To further assess the impact of these compounds on the development of metastatic lesions, the SW1 mouse melanoma model using the syngeneic C3H strain was employed. Subcutaneous injection of SW1 cells results in tumor formation at the site of injection followed by metastasis to different sites within 6-8 weeks.

SW1 tumors = test: SW1 tumor growth in syngeneic C3H mice; format: in vivo, mouse; settings: 1 mg/kg i.p. every second day for 24 days
Description: as §3
(§4) To assess the ability of CSL and CSL derivatives to affect the tumorigenicity and metastasis of melanoma, the mouse SW1 cell lines were used in syngeneic models. Injection of SW1 melanoma cells subcutaneously into C3H mice was followed by daily injections of CSL intraperitoneally (IP). […] Briefly, SW1 cells that stably express GFP were injected s.c into C3H mice. When the tumor reached the size of 50 mm^3, the vehicle, CSL (1 mg/kg), CA16 (0.5 mg/kg) or CA19 (0.5 mg/kg) were administered i.p, every second day for a period of 24 days. Tumor size was measured at the indicated times. Data presented in FIG. 6b represents two experiments.

[2] = Tolerability of administration to mice; format: in vivo, mouse; settings: daily administration, doses up to 1 mg/kg
Description: as §4

Mdm2 and p53 = test: Stability of short-lived proteins; format: cell-based; settings: 0.3-1 μM, data not shown
Excerpt: CSL was also shown to inhibit NF-κB activation through the inhibition of IKB kinase and TAK1 activities. […] Thus, it is likely that the ability of CSL to attenuate NF-κB activity would result in increased JNK activity, which is consistent the findings herein. It is the increase in JNK activity, and consequently of its substrate c-Jun, in concert with inhibition of ATF2 activities that brings about the potent cytotoxic effects of both CSL and AIGA on melanoma cells, similar to what was previously shown for the ATF2 peptides.

SMILES	concentration at which viability was reduced (MeWO cells) [µM]	phosphorylation of JNK on residues 183/185 [1]	concentration at which viability was reduced (WM115 cells) [µM]	metastatic lesions (SW1 mouse melanoma)	reduction of tumor growth (SW1 tumors) [fold]	toxicity or discomfort in mice [2]	stability of short-lived proteins, including Mdm2 and p53 (Mdm2 and p53)
CC(=O)Oc1c2c(c(CC=C(C)C)c3c1C(=O)C1=C[C@@H]4CC5C(C)(C)OC(C/C=C(\C)C(=O)O)(C4=O)[C@@]15O3)OC(C)(CCC=C(C)C)C=C2 (some centres unmarked) [AIGA, Acetyl isogambogic acid]	0.5 to 2	induced phosphorylation of JNK	0.5 to 2				
CC1=C(O)C(=O)C=C2C1=CC=C1[C@@]2(C)CC[C@@]2(C)[C@@H]3C[C@](C)(C(=O)O)CC[C@]3(C)CC[C@]12C [Celastrol]		induced phosphorylation of JNK		potently exhibit the ability to inhibit large as well as small metastatic lesions, with the exception of the 1-2 mm range	5	did not result in toxicity or any noticeable discomfort	did not affect
